Measured values from patent publication US20230303478A1, “PROCESS FOR PREPARING CARBOXYLIC ACID ESTERS OF HYDROXYBUTANOATES” (IOI Oleo GmbH, priority 2020, published 2023).

Tests used:
[1] = even if several grams are taken; patients; cited from earlier work
[2] = Cleavage (in-vitro digestion) experiments in FaSSGF medium, which simulates the stomach; assay type: in vitro ADME; conditions: cleavage experiments in FaSSGF or FaSSIF medium; stepwise release, retardation effect
From the text: By means of cleavage experiments it is shown that carboxylic acid esters of 3-hydroxybutanoate produced according to the invention or mixtures thereof (cf. previously described experiments according to I., II. and III.), including reaction by-products such as dimers, etc., can be cleaved in the human gastrointestinal tract.
In each case, purified reaction products obtained by the inventive method are used as starting mixtures (i.e. tartaric acid ester of 3-hydroxybutanoate, lactic acid ester of 3-hydroxybutanoate, succinic acid ester of 3-hydroxybutanoate, citric acid ester of 3-hydroxybutanoate, maleic acid ester of 3-hydroxybutanoate, fumaric acid ester of 3-hydroxybutanoate, malic acid ester of 3-hydroxybutanoate and adipic acid ester of 3-hydroxybutanoate).
For the cleavage experiments under near-body conditions two media are investigated: • FaSSGF, which simulates the stomach • FaSSIF, which simulates the intestinal tract
Both media are from the company Biorelevant®, Ltd. in Great Britain. In addition, in some experiments porcine pancreas is added (Panzytrat® 40,000, Fa. Allergan).
Under FaSSIF conditions, a lower conversion using Panzytrat® takes place.
Accordingly, the cleavage experiments of dicarboxylic acid esters of 3-hydroxybutanoates also proceed in a cascade. Thus, a retardation effect is present overall.

Row | course of the cleavage of 3-hydroxybutanoate [2] | Compound | duration of ketosis [1]
1 |  | CC(O)CC(=O)O (centres unmarked) [3-hydroxybutyric acid] | about three to four
2 | proceeds in a cascade | CCOC(=O)CC(C)OC(=O)CC(O)(CC(=O)OC(C)CC(=O)OCC)C(=O)OC(C)CC(=O)OCC (centres unmarked) [1,2,3-tris-(4-ethoxy-4-oxobutan-2yl)-2-hydroxypropane-1,2,3-tricarboxylate] | 
